Tested on: K24384-001-R-PDC complex spheroid viability
Experiment: Anticancer human tumor K24384-001-R-PDC patient-derived pancreatic adenocarcinoma cell line growth inhibition
Details: for IC50: curve of first compound; for viability, T/C: stronger effect = lower value
Summary of the method: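 Multicellular complex spheroids of tumor cells with human endothelial cells (HUVEC) and mesenchymal stem cells; the LSD1 inhibitor iadademstat was combined with standard-of-care or investigational agents. Top concentration at or near clinical Cmax, half-log dilutions; final DMSO ≤0.25%.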
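Also: spheroids exposed to agents for seven days before luminescence viability reading.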
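For viability, T/C in this document: 100% = DMSO vehicle control viability.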

CC[C@@]1(O)C(=O)OCc2c1cc1n(c2=O)Cc2cc3c(CN(C)C)c(O)ccc3nc2-1 + NC1CC1c1ccc(-c2cccc(O)c2)cc1 showed an IC50 (second compound 0.1 µM) of 10.4 nM, an IC50 (second compound 0.316 µM) of 12.1 nM and an IC50 (second compound 1 µM) of 9.47 nM. For the same molecule, the IC50 (second compound 3.16 µM) was 8.68 nM, the IC50 (second compound 10 µM) was 11.4 nM and the viability, T/C (second compound 0.1 µM, first compound 0.000316 µM) was 72.3%. For the same molecule, the viability, T/C (second compound 0.1 µM, first compound 0.001 µM) was 81.5%, the viability, T/C (second compound 0.1 µM, first compound 0.00316 µM) was 79.9% and the viability, T/C (second compound 0.1 µM, first compound 0.01 µM) was 50.3%. The viability, T/C (second compound 0.1 µM, first compound 0.0316 µM) was 43.7%, the viability, T/C (second compound 0.1 µM, first compound 0.1 µM) was 33.2% and the viability, T/C (second compound 0.316 µM, first compound 0.000316 µM) was 76.1%. The viability, T/C (second compound 0.316 µM, first compound 0.001 µM) was 90.1%, the viability, T/C (second compound 0.316 µM, first compound 0.00316 µM) was 62.9% and the viability, T/C (second compound 0.316 µM, first compound 0.01 µM) was 53.5%. The viability, T/C (second compound 0.316 µM, first compound 0.0316 µM) was 43.7%, the viability, T/C (second compound 0.316 µM, first compound 0.1 µM) was 35.9% and the viability, T/C (second compound 1 µM, first compound 0.000316 µM) was 78.5%. The viability, T/C (second compound 1 µM, first compound 0.001 µM) was 89%, the viability, T/C (second compound 1 µM, first compound 0.00316 µM) was 73.3% and the viability, T/C (second compound 1 µM, first compound 0.01 µM) was 49.8%. For the same molecule, the viability, T/C (second compound 1 µM, first compound 0.0316 µM) was 33.5%, the viability, T/C (second compound 1 µM, first compound 0.1 µM) was 35.3% and the viability, T/C (second compound 3.16 µM, first compound 0.000316 µM) was 75.8%. The viability, T/C (second compound 3.16 µM, first compound 0.001 µM) was 79.2%, the viability, T/C (second compound 3.16 µM, first compound 0.00316 µM) was 77.6% and the viability, T/C (second compound 3.16 µM, first compound 0.01 µM) was 46.1%. It also gave a viability, T/C (second compound 3.16 µM, first compound 0.0316 µM) of 42%, a viability, T/C (second compound 3.16 µM, first compound 0.1 µM) of 33.9% and a viability, T/C (second compound 10 µM, first compound 0.000316 µM) of 79%. It also gave a viability, T/C (second compound 10 µM, first compound 0.001 µM) of 81.7%, a viability, T/C (second compound 10 µM, first compound 0.00316 µM) of 84.4% and a viability, T/C (second compound 10 µM, first compound 0.01 µM) of 51.1%. For the same molecule, the viability, T/C (second compound 10 µM, first compound 0.0316 µM) was 40.9% and the viability, T/C (second compound 10 µM, first compound 0.1 µM) was 41.1%.
